According to the supplement of paper PMC10307832:

Assays:
Assay in all cases: relative viability (nuclei count vs DMSO), 5 days (fraction); higher = more cells survive
AZ3146 + Tozasertib = compound: CN1CCC(CC1)OC2=CC(=C(C=C2)NC3=NC=C4C(=N3)N(C(=O)N4C)C5CCCC5)OC [AZ3146] + Cc1cc(Nc2cc(N3CCN(C)CC3)nc(Sc3ccc(NC(=O)C4CC4)cc3)n2)n[nH]1 [Tozasertib] (partner 0.1 µM)
Procedure, shortened: (§1)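 Lung cancer cell lines, seeded in 1536-well plates, were treated the following day by pin tool with a single drug or with five library-drug doses (not always all listed) in √10 steps on top of a fixed anchor-drug dose. Cells were fixed and nuclei stained in one step after 5 days, and nuclei were counted. Relative viability is the nuclei count for treated wells divided by that for vehicle wells, reported as medians of duplicate plates.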

AZ3146 + Alpelisib = compound: CN1CCC(CC1)OC2=CC(=C(C=C2)NC3=NC=C4C(=N3)N(C(=O)N4C)C5CCCC5)OC [AZ3146] + Cc1nc(NC(=O)N2CCC[C@H]2C(N)=O)sc1-c1ccnc(C(C)(C)C(F)(F)F)c1 [Alpelisib] (partner 2 µM)
Procedure, shortened: as §1

AZ3146 + Phenformin = compound: CN1CCC(CC1)OC2=CC(=C(C=C2)NC3=NC=C4C(=N3)N(C(=O)N4C)C5CCCC5)OC [AZ3146] + N=C(N)NC(=N)NCCc1ccccc1 [Phenformin] (partner 250 µM)
Procedure, shortened: as §1

AZ3146 + Palbociclib = compound: CN1CCC(CC1)OC2=CC(=C(C=C2)NC3=NC=C4C(=N3)N(C(=O)N4C)C5CCCC5)OC [AZ3146] + CC(=O)c1c(C)c2cnc(Nc3ccc(N4CCNCC4)cn3)nc2n(C2CCCC2)c1=O [Palbociclib] (partner 0.5 µM)
Procedure, shortened: as §1

Cell Line	relative viability (AZ3146 + Tozasertib; first compound 0.08 µM)	relative viability (AZ3146 + Tozasertib; first compound 0.253 µM)	relative viability (AZ3146 + Tozasertib; first compound 0.8 µM)	relative viability (AZ3146 + Tozasertib; first compound 2.53 µM)	relative viability (AZ3146 + Tozasertib; first compound 8 µM)	relative viability (AZ3146 + Alpelisib; first compound 0.08 µM)	relative viability (AZ3146 + Alpelisib; first compound 0.253 µM)	relative viability (AZ3146 + Alpelisib; first compound 0.8 µM)	relative viability (AZ3146 + Alpelisib; first compound 2.53 µM)	relative viability (AZ3146 + Alpelisib; first compound 8 µM)	relative viability (AZ3146 + Phenformin; first compound 0.08 µM)	relative viability (AZ3146 + Phenformin; first compound 0.253 µM)	relative viability (AZ3146 + Phenformin; first compound 0.8 µM)	relative viability (AZ3146 + Phenformin; first compound 2.53 µM)	relative viability (AZ3146 + Phenformin; first compound 8 µM)	relative viability (AZ3146 + Palbociclib; first compound 0.08 µM)	relative viability (AZ3146 + Palbociclib; first compound 0.253 µM)	relative viability (AZ3146 + Palbociclib; first compound 0.8 µM)	relative viability (AZ3146 + Palbociclib; first compound 2.53 µM)	relative viability (AZ3146 + Palbociclib; first compound 8 µM)
NCI-H727	0.546	0.495	0.455	0.575	0.439	0.506	0.457	0.48	0.612	0.333	0.456	0.545	0.341	0.61	0.417	0.663	0.624	0.675	0.627	0.659
NCI-H838	0.249	0.252	0.254	0.263	0.183	0.95	1.06	0.883	0.985	0.858	0.581	0.554	0.556	0.517	0.229	0.219	0.202	0.205	0.239	0.161
NCI-H1355	0.371	0.573	0.485	0.404	0.359	0.836	0.849	0.897	0.723	0.809	0.446	0.444	0.437	0.465	0.404	0.396	0.402	0.405	0.406	0.388
NCI-H1395	0.647	0.832	0.888	0.791	0.522	1.08	1.18	0.998	0.994	1.26	0.394	0.45	0.379	0.423	0.445	0.619	0.603	–	0.619	0.647
NCI-H1437	0.355	0.42	0.394	0.354	0.265	0.954	1.05	0.876	0.96	0.911	0.264	0.34	0.312	0.295	0.313	0.311	0.29	0.303	0.314	0.27
NCI-H1651	0.597	0.793	0.465	0.552	0.297	0.879	1.02	0.936	1.1	0.958	0.31	0.316	0.345	0.34	0.313	0.486	0.532	0.53	0.526	0.497
NCI-H1666	0.473	0.527	0.442	0.463	0.338	0.739	0.848	0.962	0.956	0.841	0.592	0.574	0.53	0.608	0.528	0.586	0.659	0.672	0.663	0.656
NCI-H1734	0.225	0.264	0.279	0.275	0.29	0.731	0.62	0.731	0.649	0.696	0.393	0.373	0.406	0.426	0.376	0.308	0.376	0.387	0.3	0.317
NCI-H1755	0.519	0.696	0.678	0.766	0.588	0.919	0.989	0.848	0.953	0.917	0.548	0.577	0.57	0.601	0.569	0.414	0.427	0.434	0.479	0.431
NCI-H1793	0.315	0.34	0.296	0.192	0.254	0.578	0.743	0.758	0.779	0.624	0.473	0.286	0.339	0.35	0.213	0.269	0.292	0.311	0.374	0.321
NCI-H1915	0.409	0.483	0.367	0.381	0.351	0.978	1	1	1.06	1.04	0.285	0.375	0.381	0.365	0.343	0.431	0.571	0.564	0.573	0.491
NCI-H1944	0.219	0.241	0.246	0.235	0.224	–	0.845	0.991	0.825	0.861	0.168	0.18	0.188	0.19	0.207	0.302	0.322	0.298	0.39	0.326
NCI-H1975	0.684	0.732	0.275	0.208	0.227	0.658	0.627	0.671	0.616	0.301	0.406	0.387	0.386	0.401	0.301	0.534	0.548	0.562	0.552	0.309
NCI-H1993	0.544	0.548	0.6	0.544	0.51	0.785	0.713	0.61	0.666	0.662	0.513	0.509	0.499	0.557	0.45	0.721	0.71	0.579	0.639	0.762
NCI-H2009	0.669	0.689	0.463	0.557	0.434	1.1	1.17	1.19	1.24	1.05	0.478	0.494	0.402	0.386	0.311	0.256	0.227	0.243	0.171	0.204
